# Activity calls are given as the source filed them. The calls are words filed in the database; no cut-off is given here.
# Experiments:
# [1] = system: HepG2; test: Effect on ATGL mRNA level in human HepG2 cells at 50 to 5000 nM after 24 hrs by RT-qPCR analysis; type: functional, cell-based; details: dose 50-5000 nM
# [2] = Toxicity in C57BL/6 mouse assessed as change in kidney morphology by H and E staining based histological analysis; details: in vivo
# [3] = biological target: T1, Patatin-like phospholipase domain-containing protein 2 (Homo sapiens) (UniProt Q96AD5); test: Inhibition of ATGL ubiquitination (unknown origin) expressed in HEK293-A cells incubated for 6 hrs by Western blotting analysis; type: cell-based
# T1 sequence (whole entry): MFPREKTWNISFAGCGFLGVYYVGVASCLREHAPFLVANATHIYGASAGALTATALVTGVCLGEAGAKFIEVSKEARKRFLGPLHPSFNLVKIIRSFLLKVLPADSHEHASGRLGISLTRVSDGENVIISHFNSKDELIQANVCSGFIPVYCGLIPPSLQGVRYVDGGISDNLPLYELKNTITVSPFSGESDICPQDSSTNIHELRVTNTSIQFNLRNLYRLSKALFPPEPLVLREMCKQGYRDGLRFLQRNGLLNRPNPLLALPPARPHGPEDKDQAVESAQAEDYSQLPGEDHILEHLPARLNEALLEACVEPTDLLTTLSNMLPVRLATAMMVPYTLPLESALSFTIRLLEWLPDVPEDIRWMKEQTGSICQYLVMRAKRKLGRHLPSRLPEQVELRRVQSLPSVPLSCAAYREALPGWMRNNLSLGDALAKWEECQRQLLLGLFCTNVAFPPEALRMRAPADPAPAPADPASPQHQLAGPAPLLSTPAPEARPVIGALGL
# [4] = Stability in mouse plasma assessed as compound remaining after 2 hrs; type: ADME, cell-free; details: read-out: Stability
# [5] = system: HepG2; test: Reduction in lipid droplets in human HepG2 cells by […] staining based confocal microscopic analysis; type: functional, cell-based
# [6] = Lipophilicity, logD of compound; type: physicochemical; details: octanol/water
# [7] = Aqueous solubility of compound at pH 7.4; type: physicochemical
# [8] = organism: Mus musculus; test: Upregulation of ATGL protein level in mouse primary adipose tissue incubated for 24 hrs by Western blotting analysis; type: functional, tissue-based; details: dose 100-1000 nM
# [9] = system: Mus musculus; test: Anti-NASH activity in high-fat diet induced nonalcoholic steatohepatitis C57BL/6 mouse assessed as reduction in accumulation of fat droplets at 80 mg/kg, po administered for 1 month by H and E staining based assay; type: functional, organism-based; details: time 1.0 months
# [10] = Toxicity in C57BL/6 mouse assessed as inflammatory infiltration; details: in vivo
# [11] = system: Hepatocyte; test: Upregulation of ATGL protein level in mouse primary hepatocytes incubated for 24 hrs by Western blotting analysis; type: functional, cell-based; details: dose 10-500 nM
# [12] = Metabolic stability in human liver microsomes assessed as half life; type: ADME, Microsome
# [13] = system: Mus musculus; test: Anti-NASH activity in high-fat diet induced nonalcoholic steatohepatitis C57BL/6 mouse assessed as appearance of darker liver at 80 mg/kg, po administered for 1 month; type: functional, organism-based; details: time 1.0 months
# [14] = system: Mus musculus; test: Upregulation of ATGL expression level in C57BL/6 mouse adipose tissue at 80 mg/kg, po administered for 7 days; type: functional, organism-based; details: time 7.0 day
# [15] = Toxicity in C57BL/6 mouse assessed as change in liver morphology by H and E staining based histological analysis; type: tissue-based; details: in vivo
# [16] = Metabolic stability in mouse liver microsomes assessed as half life; type: ADME, Microsome
# [17] = system: Mus musculus; test: Anti-NASH activity in high-fat diet induced nonalcoholic steatohepatitis C57BL/6 mouse assessed as reduction in liver size at 80 mg/kg, po administered for 1 month; type: functional, organism-based; details: time 1.0 months
# [18] = system: Mus musculus; test: Anti-NASH activity in high-fat diet induced nonalcoholic steatohepatitis C57BL/6 mouse assessed as reduction in liver collagen fiber content at 80 mg/kg, po administered for 1 month by sirius red staining based assay; type: functional, organism-based; details: time 1.0 months
# [19] = Metabolic stability in mouse liver microsomes assessed as intrinsic clearance per mg of protein; type: ADME, Microsome; details: read-out: CLH
# [20] = system: Mus musculus; test: Upregulation of COP1 expression level in C57BL/6 mouse liver at 80 mg/kg, po administered for 7 days; type: functional, organism-based; details: time 7.0 day
# [21] = system: Mus musculus; test: Upregulation of COP1 expression level in C57BL/6 mouse adipose tissue at 80 mg/kg, po administered for 7 days; type: functional, organism-based; details: time 7.0 day
# [22] = Metabolic stability in mouse liver microsomes assessed as hepatic blood flow; type: ADME, Microsome; details: read-out: QH
# [23] = Toxicity in C57BL/6 mouse assessed as change in lung morphology by H and E staining based histological analysis; type: tissue-based; details: in vivo
# [24] = Toxicity in C57BL/6 mouse assessed as change in kidney tubular structure; type: tissue-based; details: in vivo
# [25] = system: Mus musculus; test: Anti-NASH activity in high-fat diet induced nonalcoholic steatohepatitis C57BL/6 mouse assessed as reduction in body weight at 80 mg/kg, po administered for 1 month; type: functional, organism-based; details: time 1.0 months
# [26] = system: HepG2; test: Effect on COP1 in human HepG2 cells assessed as change in p53 level at 10 to 500 nM by RT-qPCR analysis; type: functional, cell-based; details: dose 10-500 nM
# [27] = Metabolic stability in human liver microsomes assessed as intrinsic clearance per mg of protein; type: ADME, Microsome; details: read-out: CLH
# [28] = system: Mus musculus; test: Anti-NASH activity in high-fat diet induced nonalcoholic steatohepatitis C57BL/6 mouse assessed as reduction in liver triglyceride level at 80 mg/kg, po administered for 1 month; type: functional, organism-based; details: time 1.0 months
# [29] = system: Mus musculus; test: Anti-NASH activity in high-fat diet induced nonalcoholic steatohepatitis C57BL/6 mouse assessed as reduction in liver weight at 80 mg/kg, po administered for 1 month; type: functional, organism-based; details: time 1.0 months
# [30] = system: HepG2; test: Cytotoxicity against human HepG2 cells upto 5 uM incubated for 24 hrs by MTT assay; type: toxicity, cell-based; details: hepg2, 24 h
# [31] = Metabolic stability in human liver microsomes assessed as hepatic blood flow; type: ADME, Microsome; details: read-out: QH
# [32] = system: Mus musculus; test: Upregulation of ATGL expression level in C57BL/6 mouse liver at 80 mg/kg, po administered for 7 days; type: functional, organism-based; details: time 7.0 day
# [33] = system: HepG2; test: Effect on COP1 in human HepG2 cells assessed as change in c-Jun level at 10 to 500 nM by RT-qPCR analysis; type: functional, cell-based; details: dose 10-500 nM
# [34] = Stability in human plasma assessed as compound remaining after 2 hrs; type: ADME, cell-free; details: read-out: Stability
# [35] = biological target: COP1-AGTL (Homo sapiens) (UniProt Q96AD5+Q8NHY2); test: Induction of COP1 to ATGL stabilization (unknown origin) expressed in HEK293-A cells assessed as reduction in ATGL ubiquitination incubated for 6 hrs by Western blotting analysis; type: cell-based
# [36] = biological target: E3 ubiquitin-protein ligase COP1 (Homo sapiens) (UniProt Q8NHY2); test: Inhibition of COP1 auto-ubiquitination in human HepG2 cells preincubated for 20 hrs followed by MG132 addition and measured after 4 hrs by immunoprecipitation method; type: cell-based; details: time 24.0 hrs
# [37] = biological target: T1, Patatin-like phospholipase domain-containing protein 2 (Homo sapiens); test: Inhibition of ATGL ubiquitination in human HepG2 cells preincubated for 20 hrs followed by MG132 addition and measured after 4 hrs by immunoprecipitation method; type: cell-based; details: time 24.0 hrs
# [38] = system: Hepatocyte; test: Reduction in lipid droplets in oleate induced mouse primary hepatocytes at 100 nM by BODIPY493/503 staining based confocal microscopic analysis; type: functional, cell-based
# [39] = system: HepG2; test: Reduction in lipid droplets in human HepG2 cells at 100 nM incubated for 24 hrs by Hoechst 33342 staining based confocal microscopic analysis; type: functional, cell-based
# Chain of COP1-AGTL (Homo sapiens) (Q8NHY2 whole entry, looked up, one chain of several): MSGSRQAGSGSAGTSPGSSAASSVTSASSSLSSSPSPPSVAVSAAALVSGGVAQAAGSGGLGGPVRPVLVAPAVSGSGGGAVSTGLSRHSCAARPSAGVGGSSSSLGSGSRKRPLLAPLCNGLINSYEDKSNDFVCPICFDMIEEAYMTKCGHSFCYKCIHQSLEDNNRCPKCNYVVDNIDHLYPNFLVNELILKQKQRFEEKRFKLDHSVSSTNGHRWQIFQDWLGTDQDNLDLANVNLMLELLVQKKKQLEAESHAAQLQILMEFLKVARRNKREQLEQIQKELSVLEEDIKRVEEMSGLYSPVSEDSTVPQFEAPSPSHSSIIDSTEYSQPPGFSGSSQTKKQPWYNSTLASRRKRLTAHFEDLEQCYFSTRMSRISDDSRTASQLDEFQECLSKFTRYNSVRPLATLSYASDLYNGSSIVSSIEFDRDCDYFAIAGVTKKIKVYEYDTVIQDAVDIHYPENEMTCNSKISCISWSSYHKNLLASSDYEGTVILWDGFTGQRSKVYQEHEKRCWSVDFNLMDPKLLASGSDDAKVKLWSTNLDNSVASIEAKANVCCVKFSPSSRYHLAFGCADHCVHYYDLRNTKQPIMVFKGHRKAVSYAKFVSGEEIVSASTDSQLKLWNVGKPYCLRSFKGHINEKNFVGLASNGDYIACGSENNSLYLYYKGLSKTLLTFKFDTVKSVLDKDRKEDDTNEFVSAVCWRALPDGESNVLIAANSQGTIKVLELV
# Chain of E3 ubiquitin-protein ligase COP1 (Homo sapiens) (Q8NHY2 whole entry, the tested form may be a part): as the sequence (Q8NHY2 whole entry, looked up, one chain of several) above
Structure (SMILES),Activity [1],Activity [2],inhibition [3],remaining at 2 h [4] [%],Activity [5],logD [6],solubility [7] [µg/mL],Activity [8],Activity [9],Activity [10],Activity [11],half-life [12] [min],Activity [13],Activity [14],Activity [15],half-life [16] [min],Activity [17],Activity [18],microsomal CLint [19] [µL/min/mg],Activity [20],further results
COCCn1cnc2ccc(NC(=O)Nc3cccc(C(C)=O)c3)cc2c1=O,inactive,Non-Toxic,Active,14.2,Active,2.38,2.56,inactive,Active,Non-Toxic,Dose-Dependent Effect,119,Active,inactive,Non-Toxic,87,Active,Active,8.15,Active,Activity [21]: inactive; hepatic extraction ratio [22]: 0.181; Activity [23]: Non-Toxic; Activity [24]: Non-Toxic; Activity [25]: Active; Activity [26]: inactive; microsomal CLint [27]: 5.84 µL/min/mg; Activity [28]: Active; Activity [29]: Active; Activity [30]: Non-Toxic; hepatic extraction ratio [31]: 0.213; Activity [32]: Active; Activity [33]: inactive; remaining at 2 h [34]: 16.9%; Activity [35]: Active
COCCn1c(=O)c2cc(NC(=O)Nc3cccc(C(C)=O)c3)ccc2n(CCN2CCCCC2)c1=O,inactive,Non-Toxic,Active,103,Active,2.78,116,inactive,Active,Non-Toxic,Dose-Dependent Effect,24.5,Active,inactive,Non-Toxic,12.3,Active,Active,56.2,Active,inhibition [36]: Active; inhibition [37]: Active; Activity [21]: inactive; hepatic extraction ratio [22]: 0.605; Activity [23]: Non-Toxic; Activity [24]: Non-Toxic; Activity [25]: Active; Activity [38]: Active; Activity [26]: inactive; microsomal CLint [27]: 28.3 µL/min/mg; Activity [28]: Active; Activity [39]: Active; Activity [29]: Active; Activity [30]: Non-Toxic; hepatic extraction ratio [31]: 0.567; Activity [32]: Active; Activity [33]: inactive; remaining at 2 h [34]: 110%; Activity [35]: Active

# Source: ChEMBL document CHEMBL5376004, “Discovery and Development of Quinazolinones and Quinazolinediones for Ameliorating Nonalcoholic Fatty Liver Disease (NAFLD) by Modulating COP1-ATGL Axis” (J Med Chem, 2023)
